Results: US20250188069A1, “COMPOUNDS AND METHODS FOR DEGRADING CASEIN KINASE 1 ALPHA” (PIN THERAPEUTICS, INC., priority 2022, published 2025)
Structures can show the parent of a compound that is named as a salt.

Tested on: MV-4-11 cells
Assay: AML cell viability assay (RealTime-Glo)
Assay type: cell-based
Details: Homo sapiens, MV4-11, 44 h, read-out: Cell viability classification

Compound `O=C1CCC(N2Cc3c(cccc3N(CCC3CC3)[C@H]3CC[C@@H](Nc4ccccn4)CC3)C2=O)C(=O)N1` (stereo partly shown) [Compound 575, 3-{4-[(2-cyclopropylethyl)[(1s,4s)-4-(pyridin-2-ylamino)cyclohexyl]amino]-1-oxo-3H-isoindol-2-yl}piperidine-2,6-dione] has an IC50 of 100 to 1000 nM.

Same assay, conditions: Homo sapiens, MV4-11; IC50 class; MV-4-11 cells, RealTime-Glo after 44 hrs of treatment (TABLE 1); read-out: Cell viability classification

`N[C@H]1CC[C@H](N(CCCC2CCCO2)c2cccc3c2CN(C2CCC(=O)NC2=O)C3=O)CC1` (stereo partly shown) [Compound 346, 3-(4-(((1r,4r)-4-aminocyclohexyl)(3-(tetrahydrofuran-2-yl)propyl)amino)-1-oxoisoindolin-2-yl)piperidine-2,6-dione, HCl] and `N[C@H]1CC[C@H](N(CCCC2COC2)c2cccc3c2CN(C2CCC(=O)NC2=O)C3=O)CC1` (stereo partly shown) [Compound 347, 3-(4-(((1r,4r)-4-aminocyclohexyl)(3-(oxetan-3-yl)propyl)amino)-1-oxoisoindolin-2-yl)piperidine-2,6-dione] fall in the same range of IC50: 100 to 1000 nM for the first, 100 to 1000 nM for the second.

Compared with `N[C@H]1CC[C@H](N(CCC=C2CCOCC2)c2cccc3c2CN(C2CCC(=O)NC2=O)C3=O)CC1` (stereo partly shown) [Compound 344, 3-(4-(((1r,4r)-4-aminocyclohexyl)(3-(tetrahydro-4H-pyran-4-ylidene)propyl)amino)-1-oxoisoindolin-2-yl)piperidine-2,6-dione. Formic Acid], `N[C@H]1CC[C@@H](N(CCC2CC2)c2cccc3c2CN(C2CCC(=O)NC2=O)C3=O)C1` (stereo partly drawn) [Compound 352, 3-(4-(((1R,3S)-3-aminocyclopentyl)(2-cyclopropylethyl)amino)-1-oxoisoindolin-2-yl)piperidine-2,6-dione] is lower in IC50: 100 to 1000 nM for the first, less than 100 nM for the second.

Going from `C[C@H]1CC[C@@H](N(c2cccc3c2CN(C2CCC(=O)NC2=O)C3=O)[C@H]2CC[C@@H](CN)CC2)CC1` (stereo partly drawn) [Compound 334, 3-(4-(((1s,4S)-4-(aminomethyl)cyclohexyl)((1s,4S)-4-methylcyclohexyl)amino)-1-oxoisoindolin-2-yl)piperidine-2,6-dione] to `CNC(=O)[C@H]1CC[C@@H](N(CCC2CC2)c2cccc3c2CN(C2CCC(=O)NC2=O)C3=O)C1` (stereo partly drawn) [Compound 360, (1S,3R)-3-((2-cyclopropylethyl)(2-(2,6-dioxopiperidin-3-yl)-1-oxoisoindolin-4-yl)amino)-N-methylcyclopentane-1-carboxamide], the IC50 falls from greater than 1000 nM to less than 100 nM.

For `CNC(=O)[C@H]1CC[C@@H](N(CCCC2CCOCC2)c2cccc3c2CN(C2CCC(=O)NC2=O)C3=O)C1` (stereo partly drawn) [Compound 362, (1S,3R)-3-((2-(2,6-dioxopiperidin-3-yl)-1-oxoisoindolin-4-yl)(3-(tetrahydro-2H-pyran-4-yl)propyl)amino)-N-methylcyclopentane-1-carboxamide], the IC50 was 100 to 1000 nM.

Same assay, conditions: Homo sapiens, MV4-11; IC50 class; MV-4-11 cells, RealTime-Glo after 44 hrs of treatment (TABLE 2); read-out: Cell viability classification

First: C[C@H]1CC[C@H](N(CCCCN)c2cccc3c2CN(C2CCC(=O)NC2=O)C3=O)CC1 (stereo partly shown) [Compound 109, 3-(4-((4-aminobutyl)((1r,4r)-4-methylcyclohexyl)amino)-1-oxoisoindolin-2-yl)piperidine-2,6-dione hydrochloride]
Second: C[C@H]1CC[C@@H](N(CCCCN)c2cccc3c2CN(C2CCC(=O)NC2=O)C3=O)CC1 (stereo partly shown) [Compound 108, 3-(4-((4-aminobutyl)((1s,4s)-4-methylcyclohexyl)amino)-1-oxoisoindolin-2-yl)piperidine-2,6-dione hydrochloride]
The IC50 of the first is higher: 100 to 1000 nM for the first, less than 100 nM for the second.

`CCCCCN(CCC(C)(C)CN)c1cccc2c1CN(C1CCC(=O)NC1=O)C2=O` (stereo not shown) [Compound 123, 3-(4-((4-amino-3,3-dimethylbutyl)(pentyl)amino)-1-oxoisoindolin-2-yl)piperidine-2,6-dione hydrochloride] and `CC(C)(CN)CCN(CCCCN)c1cccc2c1CN(C1CCC(=O)NC1=O)C2=O` (stereo not shown) [Compound 124, 3-(4-((4-amino-3,3-dimethylbutyl)(4-aminobutyl)amino)-1-oxoisoindolin-2-yl)piperidine-2,6-dione dihydrochloride] cannot be ordered by IC50: less than 100 nM for the first, less than 100 nM for the second.

Compound `NCCCCN(c1cccc2c1CN(C1CCC(=O)NC1=O)C2=O)[C@H]1CC[C@@H](CN)CC1` (stereo partly shown) [Compound 104, 3-(4-((4-aminobutyl)((1s,4s)-4-(aminomethyl)cyclohexyl)amino)-1-oxoisoindolin-2-yl)piperidine-2,6-dione dihydrochloride] has an IC50 of 100 to 1000 nM.

Same assay, conditions: Homo sapiens, MV4-11; IC50 class; MV-4-11 cells, RealTime-Glo after 44 hrs of treatment (TABLE 4); read-out: Cell viability classification

`N#CC1(CN[C@H]2CC[C@H](N(CCC3CC3)c3cccc4c3CN(C3CCC(=O)NC3=O)C4=O)CC2)CC1` (stereo partly shown) [Compound 611, 1-({[(1r,4r)-4-[(2-cyclopropylethyl)[2-(2,6-dioxopiperidin-3-yl)-1-oxo-3H-isoindol-4-yl]amino]cyclohexyl]amino}methyl)cyclopropane-1-carbonitrile] and `O=C1CCC(N2Cc3c(cccc3N(CCC3CC3)[C@H]3CC[C@H](NCC4(C(F)(F)F)CC4)CC3)C2=O)C(=O)N1` (stereo partly shown) [Compound 582, 3-{4-[(2-cyclopropylethyl)[(1r,4r)-4-({[1-(trifluoromethyl)cyclopropyl]methyl}amino)cyclohexyl]amino]-1-oxo-3H-isoindol-2-yl}piperidine-2,6-dione] cannot be ordered by IC50: less than 100 nM for the first, less than 100 nM for the second.

First: O=C1CCC(N2Cc3c(cccc3N(CCC3CC3)[C@H]3CC[C@H](NCC4(C(F)(F)F)CCC4)CC3)C2=O)C(=O)N1 (stereo partly shown) [Compound 614, 3-{4-[(2-cyclopropylethyl)[(1r,4r)-4-({[1-(trifluoromethyl)cyclobutyl]methyl}amino)cyclohexyl]amino]-1-oxo-3H-isoindol-2-yl}piperidine-2,6-dione; trifluoro acetate]
Second: O=C1CCC(N2Cc3c(cccc3N(CCC3CC3)[C@H]3CC[C@H](NCC(F)(F)F)CC3)C2=O)C(=O)N1 (stereo partly shown) [Compound 580, 3-{4-[(2-cyclopropylethyl)[(1r,4r)-4-[(2,2,2-trifluoroethyl)amino]cyclohexyl]amino]-1-oxo-3H-isoindol-2-yl}piperidine-2,6-dione]
The IC50 of the first is lower: 100 to 1000 nM for the first, greater than 1000 nM for the second. The first is the more potent here.

`CC(N[C@H]1CC[C@H](N(CCC2CC2)c2cccc3c2CN(C2CCC(=O)NC2=O)C3=O)CC1)C(F)F` (stereo partly shown) [Compound 583, 3-{4-[(2-cyclopropylethyl)[(1r,4r)-4-[(1,1-difluoropropan-2-yl)amino]cyclohexyl]amino]-1-oxo-3H-isoindol-2-yl}piperidine-2,6-dione] and `O=C1CCC(N2Cc3c(cccc3N(CC3CC4(CCC4)C3)[C@H]3CC[C@H](NC4CC(F)(F)C4)CC3)C2=O)C(=O)N1` (stereo partly shown) [Compound 557, 3-(1-oxo-4-{[(1r,4r)-4-[(3,3-difluorocyclobutyl)amino]cyclohexyl]({spiro[3.3]heptan-2-ylmethyl})amino}-3H-isoindol-2-yl)piperidine-2,6-dione] fall in the same range of IC50: 100 to 1000 nM for the first, 100 to 1000 nM for the second.

`N[C@H]1CO[C@H]2[C@@H]1OC[C@@H]2N(CCC1CC1)c1cccc2c1CN(C1CCC(=O)NC1=O)C2=O` (stereo partly drawn) [Compound 550, 3-(4-{[(3S,3aR,6S,6aR)-6-amino-hexahydrofuro[3,2-b]furan-3-yl](2-cyclopropylethyl)amino}-1-oxo-3H-isoindol-2-yl)piperidine-2,6-dione] was tested, and the IC50 was 100 to 1000 nM.

Same assay, conditions: Homo sapiens, MV4-11; IC50 class; MV-4-11 cells, RealTime-Glo after 44 hrs of treatment (TABLE 5); read-out: Cell viability classification

First: O=C1CCC(N2Cc3c(cccc3N(CC3CC3)[C@H]3CC[C@H](NCC4(C(F)(F)F)CC4)CC3)C2=O)C(=O)N1 (stereo partly shown) [Compound 653, 3-(4-((cyclopropylmethyl)((1r,4r)-4-(((1-(trifluoromethyl)cyclopropyl)methyl)amino)cyclohexyl)amino)-1-oxoisoindolin-2-yl)piperidine-2,6-dione formate]
Second: O=C1CCC(N2Cc3c(cccc3N(CCC3CC3)[C@H]3CC[C@H](NCCC4(C(F)(F)F)CC4)CC3)C2=O)C(=O)N1 (stereo partly shown) [Compound 645, 3-{4-[(2-cyclopropylethyl)[(1r,4r)-4-({2-[1-(trifluoromethyl)cyclopropyl]ethyl}amino)cyclohexyl]amino]-1-oxo-3H-isoindol-2-yl}piperidine-2,6-dione trifluoroacetic acid]
The IC50 of the first is higher: 100 to 1000 nM for the first, less than 100 nM for the second.

`CN(CCC(F)F)[C@H]1CC[C@@H](N(CCC2CC2)c2cccc3c2CN(C2CCC(=O)NC2=O)C3=O)CC1` (stereo partly shown) [Compound 683A, 3-(4-((2-cyclopropylethyl)((1s,4s)-4-((3,3-difluoropropyl)(methyl)amino)cyclohexyl)amino)-1-oxoisoindolin-2-yl)piperidine-2,6-dione bis(2,2,2-trifluoroacetate)] and `O=C1CCC(N2Cc3c(cccc3N(CCC3CC3)[C@H]3CC[C@H](CNCCC(F)(F)F)CC3)C2=O)C(=O)N1` (stereo partly shown) [Compound 708, 3-(4-((2-cyclopropylethyl)((1r,4r)-4-(((3,3,3-trifluoropropyl)amino)methyl)cyclohexyl)amino)-1-oxoisoindolin-2-yl)piperidine-2,6-dione] fall in the same range of IC50: 100 to 1000 nM for the first, 100 to 1000 nM for the second.

Going from `CCCN(c1cccc2c1CN(C1CCC(=O)NC1=O)C2=O)[C@H]1CC[C@H](NCCC(F)(F)F)CC1` (stereo partly shown) [Compound 648, 3-(1-oxo-4-{propyl[(1r,4r)-4-[(3,3,3-trifluoropropyl)amino]cyclohexyl]amino}-3H-isoindol-2-yl)piperidine-2,6-dione trifluoroacetic acid] to `O=C1CCC(N2Cc3c(cccc3N(CCC3CC3)[C@H]3CC[C@H](NCC(F)(F)C(F)(F)F)CC3)C2=O)C(=O)N1` (stereo partly shown) [Compound 644], the IC50 rises from less than 100 nM to greater than 1000 nM.

First: O=C1CCC(N2Cc3c(cccc3N(CCC3CC3)[C@H]3CC[C@@H](N4CC[C@@H](C(F)(F)F)C4)CC3)C2=O)C(=O)N1 (stereo partly drawn) [Compound 713A, 3-(4-((2-cyclopropylethyl)((1S,4s)-4-((R)-3-(trifluoromethyl)pyrrolidin-1-yl)cyclohexyl)amino)-1-oxoisoindolin-2-yl)piperidine-2,6-dione bis(2,2,2-trifluoroacetate)]
Second: O=C1CCC(N2Cc3c(cccc3N(CCC3CC3)[C@H]3CC[C@H](N4CC[C@H](C(F)(F)F)C4)CC3)C2=O)C(=O)N1 (stereo partly drawn) [Compound 712, 3-(4-((2-cyclopropylethyl)((1S,4r)-4-((S)-3-(trifluoromethyl)pyrrolidin-1-yl)cyclohexyl)amino)-1-oxoisoindolin-2-yl)piperidine-2,6-dione 2,2,2-trifluoroacetate]
The IC50 of the first is higher: greater than 1000 nM for the first, 100 to 1000 nM for the second.
